The text below walks through data of patent US8063242B2, “2-aryl-propionic acids and pharmaceutical compositions containing them” (Dompe PHA.R.MA S.p.A., priority 2001, dated 2011).

The target in one assay is T1, CXCR1 (Homo sapiens, UniProt P25024).
T1 construct: endogenous in cells; host or cells: human polymorphonucleate leukocytes (PMNs) from blood of healthy volunteers
T1 sequence (P25024 1-350): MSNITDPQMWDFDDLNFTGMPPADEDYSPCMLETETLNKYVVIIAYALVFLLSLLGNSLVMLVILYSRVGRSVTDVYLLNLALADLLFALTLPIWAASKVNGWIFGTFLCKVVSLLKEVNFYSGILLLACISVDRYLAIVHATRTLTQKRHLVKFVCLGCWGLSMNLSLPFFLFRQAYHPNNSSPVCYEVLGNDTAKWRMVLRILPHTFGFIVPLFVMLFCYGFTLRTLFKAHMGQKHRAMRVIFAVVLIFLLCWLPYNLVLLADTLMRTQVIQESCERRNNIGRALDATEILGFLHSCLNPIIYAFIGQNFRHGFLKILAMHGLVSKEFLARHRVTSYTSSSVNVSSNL
In words: IL-8 induced PMN chemotaxis test. The format is cell-based. The settings on record: for inhibition at 1 µM: compound 10^−6 M, IL-8 induced PMN chemotaxis, IL-8 10^−9 M, read-out: % inhibition (C = 10^−6 M); for inhibition at 0.01 µM: read-out: % of inhibition IL-8 (c = 10^−8 M). As to the method:
(§1) The compounds of the invention of formula (I) were evaluated in vitro for their ability to inhibit chemotaxis of polymorphonucleate leukocytes (hereinafter referred to as PMNs) and monocytes induced by the fractions of IL-8 and GRO-α. For this purpose, in order to isolate the PMNs from heparinized human blood, taken from healthy adult volunteers, mononucleates were removed by means of sedimentation on dextran (according to the procedure disclosed by W. J. Ming et al., J. Immunol., 138, 1469, 1987) and red blood cells by a hypotonic solution. The cell vitality was calculated by exclusion with Trypan blue, whilst the ratio of the circulating polymorphonucleates was estimated on the cytocentrifugate after staining with Diff Quick.
Human recombinant IL-8 (Pepro Tech) was used as stimulating agents in the chemotaxis experiments, giving practically identical results: the lyophilized protein was dissolved in a volume of HBSS containing 0.2% bovin serum albumin (BSA) so thus to […]
(§2) During the chemotaxis assay (according to W. Falket et al., J. Immunol. Methods, 33, 239, 1980) PVP-free filters with a porosity of 5 μm and microchambers suitable for replication were used.
(§3) The compounds of the invention in formula (I) were evaluated at a concentration ranging between 10^−6 and 10^−10 M; for this purpose they were added, at the same concentration, both to the lower pores and the upper pores of the microchamber. Evaluation of the ability of the compounds of the invention of formula (I) to inhibit IL-8-induced chemotaxis of human monocytes was carried out according to the method disclosed by Van Damme J. et al. (Eur. J. Immunol., 19, 2367, 1989).

The target in another assay is T2, CXCR2 (Homo sapiens, UniProt P25025).
T2 construct: endogenous in cells; host or cells: human polymorphonucleate leukocytes (PMNs) from blood of healthy volunteers
T2 sequence (P25025 1-360): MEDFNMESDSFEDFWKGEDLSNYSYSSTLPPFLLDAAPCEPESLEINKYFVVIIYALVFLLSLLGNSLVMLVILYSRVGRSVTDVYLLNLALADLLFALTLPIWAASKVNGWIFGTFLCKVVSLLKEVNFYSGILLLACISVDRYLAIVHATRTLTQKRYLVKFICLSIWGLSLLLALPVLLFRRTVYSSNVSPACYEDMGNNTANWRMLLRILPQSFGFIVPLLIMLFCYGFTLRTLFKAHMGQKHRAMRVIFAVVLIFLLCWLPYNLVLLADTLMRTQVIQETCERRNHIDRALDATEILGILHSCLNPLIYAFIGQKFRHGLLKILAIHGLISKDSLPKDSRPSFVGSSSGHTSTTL
In words: GRO-α induced PMN chemotaxis test. The class given is cell-based. The conditions noted are these: compound 10^−8 M, PMN chemotaxis induced by GRO-α; for inhibition at 0.01 µM: read-out: % of inhibition GRO-α (c = 10^−8 M). Here is the method: as §1, §2, §3
In the table below, biological activities of compounds showing high potency in the inhibition of PMN chemotaxis induced as by IL-8 as by the selective CXCR2 agonist GRO-α are reported.

Where [1] appears, read: compound 10^−8 M, PMN chemotaxis induced by IL-8.

With `CCC(CC)c1cccc(C(C)C(=O)O)c1` (racemic) [Example 6, (R,S) 2-[3′-(alpha-ethyl-propyl)phenyl]propionic acid], on CXCR1, the inhibition (commonly the relative decrease from the control value, in per cent) at 1 µM came to 58 ± 2%.
On the same count and under the same terms, then `CC(C(=O)O)c1ccccc1Nc1c(Cl)cccc1Cl` (racemic) [Example 18, (R,S) 2-[2′-(2″,6″-dichlorophenyl)aminophenylpropionic acid], with 52 ± 3%.
Regarding `C[C@@H](C(=O)O)c1ccc(OS(=O)(=O)c2ccccc2Cl)cc1` [Example 39, (R) 2-[4′-(2″-chloro)benzenesulfonyloxy]phenylpropionic acid], the inhibition at 0.01 µM turned out to be 65 ± 10% at CXCR2 and 25 ± 7% at CXCR1 (setting [1]).
For the molecule `CC(C(=O)O)c1ccccc1Oc1c(Cl)cccc1Cl` (racemic) [Example 25, (R,S) 2-[2′-(2″,6″-dichloro)phenoxy]phenylpropionic acid], on CXCR1, the inhibition at 1 µM was determined as 41 ± 9%.
Take `CC(C)c1cccc([C@H](C)C(=O)O)c1` [Example 14, (S)-2-[(3′-isopropyl)phenyl]-propionic acid]: the inhibition at 1 µM on CXCR1 stood at 50 ± 9%.
Regarding `CC(C)S(=O)(=O)Oc1ccc([C@@H](C)C(=O)O)cc1` [Example 38, (R) 2-[4′-(2″-propane)sulfonyloxy]phenylpropionic acid], the inhibition at 0.01 µM amounted to 46 ± 6% at CXCR2 and 49 ± 8% on CXCR1 (setting [1]).
In the case of `CCc1ccccc1S(=O)(=O)Nc1ccc([C@@H](C)C(=O)O)cc1` [Example 33, (R) 2-[4′-(2″-ethyl)benzenesulfonylamino]phenylpropionic acid], the figures for the inhibition at 0.01 µM at CXCR2 and at CXCR1 (setting [1]) were 80 ± 10% and 44 ± 14%, respectively.
The matching figures for `C[C@@H](C(=O)O)c1ccc(OS(=O)(=O)Cc2ccccc2)cc1` [Example 36, (R) 2-(4′-benzylsulfonyloxy)phenylpropionic acid]: 25 ± 11% and 59 ± 11%.
Take `CC(C)c1cccc(C(C)C(=O)O)c1` (stereo not drawn) [Example 5, 2-[(3′-isopropyl)phenyl]propionic acid]: on CXCR1, the inhibition at 1 µM is 51 ± 12%.
Consider `CC(C(=O)O)c1cccc(C(C)c2ccccc2)c1` (stereo not drawn) [Example 7], for which the inhibition at 1 µM on CXCR1 worked out at 54 ± 4%.
With `C[C@@H](C(=O)O)c1ccc(NS(=O)(=O)Cc2ccccc2)cc1` [Example 31, (R) 2-(4′-benzylsulfonylamino)phenylpropionic acid], the inhibition at 0.01 µM was 24 ± 8% on CXCR2 and 60 ± 10% at CXCR1 (setting [1]).
On to `C[C@@H](C(=O)O)c1ccc(CS(=O)(=O)c2ccccc2)cc1` [Example 42, (R) 2-(4′-benzenesulfonylmethyl)phenylpropionic acid], for which the inhibition at 0.01 µM at CXCR2 was 52 ± 5%; on CXCR1 (setting [1]), 60 ± 7%.
The corresponding values for `C[C@@H](C(=O)O)c1ccc(NS(C)(=O)=O)cc1` [Example 28, (R) 2-(4′-methanesulfonylamino)phenylpropionic acid] are 32 ± 5% and 25 ± 7%.
The matching figures for `CC(C)S(=O)(=O)Nc1ccc([C@@H](C)C(=O)O)cc1` [Example 29, (R) 2-[4′-(2″-propane)sulfonylamino]phenylpropionic acid]: 44 ± 12% and 54 ± 14%.
With `C[C@@H](C(=O)O)c1ccc(NS(N)(=O)=O)cc1` [Example 34, (R) 2-(4′-aminosulfonylamino)phenylpropionic acid], the inhibition at 0.01 µM at CXCR2 is 2 ± 5%; on CXCR1 (setting [1]) it was 55 ± 10%.
Turning to `C[C@@H](C(=O)O)c1ccc(OS(=O)(=O)C(F)(F)F)cc1` [Example 37, (R) 2-(4′-trifluoromethanesulfonyloxy)phenylpropionic acid], the inhibition at 0.01 µM on CXCR2 amounted to 59 ± 10%; on CXCR1 (setting [1]), 62 ± 7%.
The matching figures for `C[C@@H](C(=O)O)c1ccc(OS(N)(=O)=O)cc1` [Example 41, (R) 2-(4′-aminosulfonyloxy)phenylpropionic acid]: 5 ± 7% and 65 ± 10%.
With `CCc1ccccc1S(=O)(=O)Oc1ccc([C@@H](C)C(=O)O)cc1` [Example 40, (R) 2-[4′-(2″-ethyl)benzenesulfonyloxy]phenylpropionic acid], the inhibition at 0.01 µM stood at 70 ± 10% on CXCR2 and 45 ± 13% at CXCR1 (setting [1]).
Consider `C[C@H](C(=O)O)c1ccccc1Nc1c(Cl)cccc1Cl` [Example 20], for which the inhibition at 1 µM at CXCR1 stood at 50 ± 7%.
Take `C[C@@H](C(=O)O)c1ccc(CS(=O)(=O)C(F)(F)F)cc1` [Example 43, (R) 2-(4′-trifluoromethanesulfonylmethyl)phenylpropionic acid]: the inhibition at 0.01 µM was 45 ± 7% on CXCR2 and 48 ± 7% at CXCR1 (setting [1]).
Regarding `C[C@@H](C(=O)O)c1ccc(NS(=O)(=O)c2ccccc2Cl)cc1` [Example 32, (R) 2-[4′-(2″-chloro)benzenesulfonylamino]phenylpropionic acid], the results for the inhibition at 0.01 µM at CXCR2 and at CXCR1 (setting [1]) were 66 ± 10% and -2 ± 10%, respectively.
Turning to `CC(C)c1cccc([C@@H](C)C(=O)O)c1` [Example 10, (R)-2-[(3′-isopropyl)phenyl]-propionic acid], the inhibition at 1 µM on CXCR1 was 43 ± 18%.
Take `C[C@@H](C(=O)O)c1ccc(NS(=O)(=O)C(F)(F)F)cc1` [Example 30, (R) 2-(4′-trifluoromethanesulfonylamino)phenylpropionic acid]: the inhibition at 0.01 µM at CXCR2 was 40 ± 14%; on CXCR1 (setting [1]) it was 8 ± 10%.
As for `CC(O)c1cccc(C(C)C(=O)O)c1` [Example 16, (R,S), (R,S) 2-[3′-(alpha-hydroxy-ethyl)phenyl]propionic acid], the inhibition at 1 µM at CXCR1 came to 57 ± 6%.
Still for that read-out and setting: then `C[C@@H](C(=O)O)c1ccccc1Nc1c(Cl)cccc1Cl` [Example 19], with 46 ± 14%.
For the molecule `C[C@@H](C(=O)O)c1ccc(NS(=O)(=O)c2ccccc2)cc1` [Example 27], the “% of inhibition GRO-α (c = 10^−8 M)” value at CXCR2 was 33 ± 11+ %. Further, the “% of inhibition IL-8 (c = 10^−8 M)” value at CXCR1 (setting [1]) is 49 ± 11%.
